Source: PubChem BioAssay AID652041 (Broad Institute, 2013)

Test system: P. falciparum HB3 in RBCs, SYBR Green DNA fluorescence
Assay: antimalarial activity against intraerythrocytic HB3 parasites – HB3 strain, red blood cells, SYBR Green, cherry-picked, dose response (AID 652041);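 further: parasites exposed to compound for 72 hours before the DNA read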

SMILES | AC35 [µM]
CC(C)N1CCN(c2ccc(OC[C@H]3CO[C@](Cn4cncn4)(c4ccc(Cl)cc4Cl)O3)cc2)CC1 | 7.37
CCCS(=O)(=O)c1c(S(=O)(=O)CCC)c2c(C)cccn2c1C(=O)N/N=C/c1cc(O)cc(O)c1 | 10.5
Cc1c(C2(O)CCCCC2)[nH]c2ccc(C(F)(F)F)cc12 | 17.3
COc1ccccc1C1CCN(C(=O)c2ccc(Cl)cc2)CC1 | 28.6
O=c1c(CO)cc(CO)cc(CO)c1O | 20.8
Cc1cc(C(=O)COC(=O)Cc2n[nH]c(=O)c3ccccc23)c(C)n1-c1cccc(C(F)(F)F)c1 | 4.22
Cc1oc2c(c1C(=O)c1ccccc1)C(=O)C(=O)c1ccccc1-2 | 3.48
Cc1ccc(-n2nnnc2SCC(=O)N2CCc3ccccc3C2)c(C)c1 | 28.7
COc1cnc(-c2ccccn2)nc1N(C)c1ccccc1 | 3.46
Cc1nc2ccc(C(C(F)(F)F)(C(F)(F)F)C(F)(F)F)cc2[nH]1 | 11.2
CCCn1c(=O)c(C(=O)NCc2ccc(OC)c(OC)c2)c(O)c2ccccc21 | 21.8
CC(C)N1CCN(c2ccc(OCC3COC(Cn4cncn4)(c4ccc(Cl)cc4Cl)O3)cc2)CC1 (configuration not stated) | 4.53
O=C1Nc2c(Br)cccc2C1=O | 30.5
O=C(NC(=S)N(CCc1ccccc1)CCc1ccccc1)c1ccco1 | 13.3
O=[N+]([O-])c1cc(C(F)(F)F)ccc1NCCc1c[nH]c2ccc(O)cc12 | 24.6
CCC(=O)NC(c1ccco1)c1cc(Cl)c2cccnc2c1O (configuration not stated) | 0.185
O=C(c1ccc(-c2ccccc2)cc1)C1CCCN(C(=O)c2cncs2)C1 (configuration not stated) | 7.38
CCCCNc1c(-c2ccc(-c3ccc(OC)cc3)c(OC)c2)nc2ccccn12 | 4.29
O=C1c2cccc(Cl)c2C(=O)c2c1cccc2N1CCCC1 | 20.9
COc1cnc(-c2ccccn2)nc1Sc1ccc(C)cc1 | 3.64
CC(=O)C1=C(c2cccc([N+](=O)[O-])c2)N(C(C)=O)n2c(C)nnc2S1 | 0.59
Cc1ccc(Nc2cc(C)nn2-c2nc(C)cc(C)n2)cc1 | 2.75

SMILES | AC35 [µM]
O=C(c1ccccc1)N1C(=O)C(c2ccccc2)Oc2ccccc21 (configuration not stated) | 37.1
CCCCCCC(Cl)(Cn1ccnc1)c1ccccc1 (configuration not stated) | 3.48
CCCCNC(=S)N/N=C1\CCCCc2ccccc21 | 16.8
CN(C)c1nc(-c2ccccn2)nnc1-c1ccccc1 | 2.54
Nc1cc2nc3ccccc3oc-2cc1=O | 1.01
COC(=O)COC(=O)c1ccccc1NC(=O)c1ccccc1 | 25.8
CCc1ccc(CN(C)C(=O)c2cc(COc3cccc(C(F)(F)F)c3)on2)nc1 | 29.1
O=C(COc1ccc([N+](=O)[O-])cc1)Nc1nc(-c2ccccn2)cs1 | 6.38
O=C1c2cc(F)ccc2-n2c1nc1ccccc1c2=O | 0.0251
O=C(CCCSc1ccccc1)Nc1nc(-c2ccccn2)cs1 | 8.91
Nc1nc(-c2ccc(Oc3ccccc3)cc2)cs1 | 30.3
COc1ccc(O)c(C(=O)CC(=O)c2ccc(F)cc2)c1 | 16.1
CC(/C=N/n1c(COc2ccccc2)n[nH]c1=S)=C\c1ccccc1 | 42.2
CC1(C)C2CCC1(C)C(OC(=O)c1ccc(O)cc1)C2 (configuration not stated) | 11.6
Cc1ccc(NC(=S)c2nc3ccccc3[nH]2)c(C)c1 | 5.68
CC(=O)C1=C(c2ccc(Br)cc2)C(=O)c2ccccc2C1=O | 0.472
COc1cc([N+](=O)[O-])cc(/C=N/NC(=O)c2cncc(Br)c2)c1O | 16.8
OCCN(CCO)c1cc2c3ccccc3ccc2c2ccccc12 | 1.21
NC(=Nc1nc(-c2ccccn2)cc2ccccc12)c1ccccn1 | 0.22
Oc1c(C(Nc2cccc(C(F)(F)F)c2)c2ccncc2)ccc2cccnc12 (configuration not stated) | 1.39
O=C(O)CSc1nc(-c2ccc(Cl)cc2)nc2c1oc1ccccc12 | 28.6
Clc1ccccc1C(c1ccccc1)(c1ccccc1)n1ccnc1 | 0.645

SMILES | AC35 [µM]
CCC(Oc1ccc(Br)cc1Cl)C(=O)Nc1nnc(C2CC2)s1 (configuration not stated) | 33.3
O/N=C(\c1ccc(Cl)cc1Cl)c1ncc(C(F)(F)F)cc1Cl | 11.6
O=C1c2ccccc2-n2c1nc1ccccc1c2=O | 0.0617
CCCC1CCC(c2ccc(/C(N)=N/O)cc2)CC1 (configuration not stated) | 24
CCc1ccc(OCc2n[nH]c(=S)n2Cc2ccccc2)cc1 | 34.4
CCCCC(=O)NC(=S)NNC(=O)CCc1ccccc1 | 23
CC1=CC(C)(C)N(S(=O)(=O)c2ccc(C)cc2)c2ccc(C)cc21 | 18.4
O=C(CSc1ccc(-c2ccccn2)nn1)c1ccccc1 | 28
CCCCc1ccc(-n2c(Cc3cccs3)n[nH]c2=S)cc1 | 29.2
O=C(Nc1cc(Oc2ccc(Cl)cc2)cc([N+](=O)[O-])c1)c1ccco1 | 2.14
CC(NC(=S)NC1CCC(C(C)(C)C)CC1)c1ccccc1 (configuration not stated) | 8.88
O=C(Nc1ccc(Cl)cc1C(=O)Nc1ccc(Br)cn1)c1ccco1 | 16.5
Oc1ccc(/C=N/Nc2ccc(C(F)(F)F)cn2)c(O)c1 | 6.46
O=C(NCCC1=CCCCC1)c1c(O)nc2sccn2c1=O | 16.2
C=CCNC(=S)N1CCC(Cc2ccccc2)CC1 | 28
C=CCNc1nc(-c2ccccn2)nnc1-c1ccccc1 | 2.22
COc1cccc(/C=N/Nc2ncnc3scc(-c4ccccc4)c23)c1O | 1.7
Cc1ccc2oc(-c3ccccc3)c(C(=O)O)c(=O)c2c1 | 20.3
CC/C(=N/NC(=O)c1ccccc1O)c1c(C)[nH]n(-c2ccccc2)c1=O | 28.1
CN(c1ccccc1)c1nc(N2CCCC2)nc(-n2ccnc2)n1 | 11.1
CCCCNc1c(-c2cccc(-c3ccc(OC)cc3)c2)nc2ccc(C)cn12 | 1.65
Clc1nc(-c2ccccn2)nc2scc(-c3ccccc3)c12 | 2.39

SMILES | AC35 [µM]
S=C(Nc1ccc(Oc2ccccc2)cc1)NC1CCCCCC1 | 4.03
CC1CCc2c(C(=O)Nc3ccccn3)csc2C1 (configuration not stated) | 35.6
CCN(CC)C(=O)CSc1ncnc2sc(-c3ccccc3)cc12 | 36.6
O=C(CC1CC2CCC1C2)Nc1nc(-c2ccccn2)cs1 (configuration not stated) | 3.99
O=C(c1ccc(Cl)cc1)N1CCN(c2ccc(F)cc2)CC1 | 35.2
S=C(NCc1ccco1)Nc1ccc(Oc2ccc(Cl)cc2)cc1 | 16.8
CCc1cc(SC#N)cc(C)c1NC(=O)CCl | 7.66
CCC(C)c1ccc(NC(=S)NCCn2cc(Br)cn2)cc1 (configuration not stated) | 10.5
Oc1c(CN2CCCC2)cc(COCc2ccccc2)c2cccnc12 | 7.31
O=C(/C(=N/N=C/c1ccc(O)c(O)c1O)c1ccccc1)c1ccccc1 | 3.7
COc1ccc2oc(=O)c(-c3csc(Nc4cccc(O)c4)n3)cc2c1 | 12
Clc1ccc(C(Cn2ccnc2)OCc2c(Cl)cccc2Cl)c(Cl)c1 (configuration not stated) | 2.36
COc1cc2cnc(-c3ccccc3)c(C(=O)c3ccc(F)cc3)c2cc1OC | 21.6
O/N=C/c1ccccc1OCc1ccc(Cl)cc1 | 34.4
[O-][n+]1cccc2c(Br)cc(Br)c(O)c21 | 2.77
Cc1ccsc1/C=C/c1ccc2cccc(O)c2n1 | 11.9
CCC(C)Sc1cccc(-c2nc3ccccn3c2NCc2ccccc2)c1 (configuration not stated) | 12.1
Cc1ccc(C(=O)C(SC(C)(C)C)n2cncn2)cc1 (configuration not stated) | 38.7
O=[N+]([O-])c1ccc2c(OCc3nnc(-c4ccccc4Br)o3)ncnc2c1 | 21.8
O=C(CSc1ccc(-c2ccccn2)nn1)NCc1ccc(F)cc1 | 37.5
CCOC(=O)c1cc2c(=Cc3ccc(N(C)C)cc3)c3ccccc3n2[n+]1C | 2.44
